Source: patent publication US9113629B2, “4-amino-6-(4-substituted-phenyl)-picolinates and 6-amino-2-(4-substituted-phenyl)-pyrimidine-4-carboxylates and their use as herbicides” (DOW AGROSCIENCES LLC, priority 2013, dated 2015)
Where two headings read alike, the source gives them in different places.

What was measured:
[1] = system: Key Broadleaf Weed and Crop Species; test: Post-emergent Test II herbicidal activity (Table 5); type: in vivo; details: post-emergence, 336 h, 14 days after application; for pest or weed control at 70 g/ha: application rate 70 g ai/ha; for pest or weed control at 140 g/ha: application rate 140 g ai/ha
Outline: (§1)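 Greenhouse post-emergent assay: seedlings (first/second true leaf) in Metro-Mix 360 were sprayed at 187 L/ha at a top rate plus twofold dilutions down to 1/16×; solvent-blank controls were included. Percent visual injury was read at 14 d.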

[2] = system: Key Grass and Sedge Weeds as well as Grass Crops; test: Post-emergent Test II herbicidal activity (Table 6); type: in vivo; details: post-emergence, 336 h; for pest or weed control at 70 g/ha: 70 g ai/ha; for pest or weed control at 140 g/ha: 140 g ai/ha
Outline: as §1

[3] = ABUTH: velvetleaf (Abutilon theophrasti), read-out: Visual Growth Reduction (%) 14 Days After Application, ABUTH
[4] = AMARE: redroot pigweed (Amaranthus retroflexus), read-out: Visual Growth Reduction (%) 14 Days After Application, AMARE
[5] = BRSNN: oilseed-rape, canola (Brassica napus), read-out: Visual Growth Reduction (%) 14 Days After Application, BRSNN
[6] = CHEAL: lambsquarters (Chenopodium album), read-out: Visual Growth Reduction (%) 14 Days After Application, CHEAL
[7] = EPHHL: wild poinsettia (Euphorbia heterophylla), read-out: Visual Growth Reduction (%) 14 Days After Application, EPHHL
[8] = HELAN: sunflower (Helianthus annuus), read-out: Visual Growth Reduction (%) 14 Days After Application, HELAN
[9] = VIOTR: wild pansy (Viola tricolor), read-out: Visual Growth Reduction (%) 14 Days After Application, VIOTR
[10] = CYPES: yellow nutsedge (Cyperus esculentus), read-out: Visual Growth Reduction (%) 14 Days After Application, CYPES
[11] = DIGSA: crabgrass (Digitaria sanguinalis), read-out: Visual Growth Reduction (%) 14 Days After Application, DIGSA
[12] = ECHCG: barnyardgrass (Echinochloa crus-galli), read-out: Visual Growth Reduction (%) 14 Days After Application, ECHCG
[13] = ORYSA: rice (Oryza sativa), crop, read-out: Visual Growth Reduction (%) 14 Days After Application, ORYSA
[14] = SETFA: giant foxtail (Setaria faberi), read-out: Visual Growth Reduction (%) 14 Days After Application, SETFA
[15] = SORVU: grain sorghum (Sorghum vulgare), read-out: Visual Growth Reduction (%) 14 Days After Application, SORVU
[16] = TRZSS (wheat, Triticum aestivum), crop, read-out: Visual Growth Reduction (%) 14 Days After Application, TRZSS
[17] = ZEAMX: maize, corn (Zea mays), crop, read-out: Visual Growth Reduction (%) 14 Days After Application, ZEAMX

SMILES: COC(=O)c1nc(-c2ccccc2F)c(F)c(N)c1Cl [Compound 206]
- pest or weed control at 70 g/ha [1, 3]: 95 to 100%
- pest or weed control at 140 g/ha [1, 3]: 95 to 100%
- pest or weed control at 70 g/ha [1, 4]: 95 to 100%
- pest or weed control at 140 g/ha [1, 4]: 95 to 100%
- pest or weed control at 70 g/ha [1, 5]: 75 to 84%
- pest or weed control at 140 g/ha [1, 5]: 85 to 94%
- pest or weed control at 70 g/ha [1, 6]: 85 to 94%
- pest or weed control at 140 g/ha [1, 6]: 85 to 94%
- pest or weed control at 70 g/ha [1, 7]: 95 to 100%
- pest or weed control at 140 g/ha [1, 7]: 95 to 100%
- pest or weed control at 70 g/ha [1, 8]: 60 to 74%
- pest or weed control at 140 g/ha [1, 8]: 85 to 94%
- pest or weed control at 70 g/ha [1, 9]: 45 to 59%
- pest or weed control at 140 g/ha [1, 9]: 60 to 74%
- pest or weed control at 70 g/ha [2, 10]: 0 to 29%
- pest or weed control at 140 g/ha [2, 10]: 0 to 29%
- pest or weed control at 70 g/ha [2, 11]: 0 to 29%
- pest or weed control at 140 g/ha [2, 11]: 0 to 29%
- pest or weed control at 70 g/ha [2, 12]: 0 to 29%
- pest or weed control at 140 g/ha [2, 12]: 0 to 29%
- pest or weed control at 70 g/ha [2, 13]: 0 to 29%
- pest or weed control at 140 g/ha [2, 13]: 0 to 29%
- pest or weed control at 70 g/ha [2, 14]: 0 to 29%
- pest or weed control at 140 g/ha [2, 14]: 0 to 29%
- pest or weed control at 70 g/ha [2, 15]: 0 to 29%
- pest or weed control at 140 g/ha [2, 15]: 0 to 29%
- pest or weed control at 70 g/ha [2, 16]: 0 to 29%
- pest or weed control at 140 g/ha [2, 16]: 0 to 29%
- pest or weed control at 70 g/ha [2, 17]: 0 to 29%
- pest or weed control at 140 g/ha [2, 17]: 0 to 29%
